Test results taken from ChEMBL document CHEMBL3885861, “Open TG-GATES”.

Species on record: Rattus norvegicus
Test: Open TG-GATES - Regimen: Daily Repeat
Type: toxicity, organism-based, Sprague-Dawley
Set-up: regimen Daily Repeat, gender Male, age 6 weeks
Settings: in vivo, po, route gavage; for APTT / Bas / Eos / Fbg / Hb / Ht / Lym / MCH / MCHC / MCV / Mono / Neu / PT / Plat / RBC / Ret / WBC: tissue Blood; for KIDNEY_L / KIDNEY_R / KIDNEY_TOTAL: tissue Kidney; for LIVER: tissue Liver; for A/G / ALP / ALT / AST / BUN / CRE / Ca / Cl / DBIL / GLC / IP / K / LDH / Na / PL / RALB / TBIL / TC / TG / TP / gamma-GTP: tissue Plasma
[1] = 60 mg/kg, 72 h, dose level Middle, time 3 day
[2] = 60 mg/kg, […], dose level Middle, time 7 day
[3] = 60 mg/kg, […], dose level Middle, time 14 day
[4] = 60 mg/kg, […], dose level Middle, time 28 day
[5] = 200 mg/kg, 72 h, dose level High, time 3 day
[6] = 200 mg/kg, […], dose level High, time 7 day
[7] = 200 mg/kg, […], dose level High, time 14 day
[8] = 200 mg/kg, […], dose level High, time 28 day

## Cn1c(=O)c2[nH]cnc2n(C)c1=O.O [THEOPHYLLINE]
[1]
  TERMINAL_BW: 242.6 g
  APTT: 21.7 s
  Bas: 0%
  Eos: 0.6%
  Fbg: 303.4 mg/dL
  Hb: 13.4 g/dL
  Ht: 40.4%
  Lym: 78.4%
  MCH: 20.8 pg
  MCHC: 33.2%
  MCV: 62.8 fL
  Mono: 3.2%
  Neu: 16.4%
  PT: 15.5 s
  Plat: 123.5 x10_4/uL
  RBC: 644.2 x10_4/ul
  Ret: 7.4%
  WBC: 126 x10_2/uL
  KIDNEY_L: 1 g
  KIDNEY_R: 1.1 g
  KIDNEY_TOTAL: 2.1 g
  LIVER: 10.8 g
  A/G: 1.2
  ALP: 1599.4 IU/L
  ALT: 44.2 IU/L
  AST: 69.2 IU/L
  BUN: 14.8 mg/dL
  CRE: 0.2 mg/dL
  Ca: 10.7 mg/dL
  Cl: 106.2 meq/L
  DBIL: 0 mg/dL
  GLC: 186 mg/dL
  IP: 8.4 mg/dL
  K: 4.2 meq/L
  LDH: 146.6 IU/L
  Na: 142 meq/L
  PL: 132.8 mg/dL
  RALB: 2.9 g/dL
  TBIL: 0.004 mg/dL
  TC: 80.4 mg/dL
  TG: 75 mg/dL
  TP: 5.3 g/dL
  gamma-GTP: 1.4 IU/L
[2]
  TERMINAL_BW: 265.8 g
  APTT: 23.4 s
  Bas: 0%
  Eos: 0.8%
  Fbg: 299.4 mg/dL
  Hb: 13.9 g/dL
  Ht: 40.6%
  Lym: 79%
  MCH: 21.2 pg
  MCHC: 34.2%
  MCV: 61.9 fL
  Mono: 2.8%
  Neu: 16.2%
  PT: 15.4 s
  Plat: 109.7 x10_4/uL
  RBC: 655.8 x10_4/ul
  Ret: 5.4%
  WBC: 123.4 x10_2/uL
  KIDNEY_L: 1.2 g
  KIDNEY_R: 1.2 g
  KIDNEY_TOTAL: 2.4 g
  LIVER: 11.6 g
  A/G: 1.2
  ALP: 1497.8 IU/L
  ALT: 42.2 IU/L
  AST: 77.6 IU/L
  BUN: 17.6 mg/dL
  CRE: 0.2 mg/dL
  Ca: 10.4 mg/dL
  Cl: 107 meq/L
  DBIL: 0 mg/dL
  GLC: 195.4 mg/dL
  IP: 7.8 mg/dL
  K: 4.3 meq/L
  LDH: 175.4 IU/L
  Na: 142.2 meq/L
  PL: 140.2 mg/dL
  RALB: 3 g/dL
  TBIL: 0.006 mg/dL
  TC: 72 mg/dL
  TG: 86.8 mg/dL
  TP: 5.6 g/dL
  gamma-GTP: 1.6 IU/L
[3]
  TERMINAL_BW: 313.9 g
  APTT: 24.1 s
  Bas: 0%
  Eos: 0.8%
  Fbg: 336.8 mg/dL
  Hb: 14.5 g/dL
  Ht: 42.9%
  Lym: 77.8%
  MCH: 20.6 pg
  MCHC: 33.9%
  MCV: 60.7 fL
  Mono: 2.4%
  Neu: 18%
  PT: 15.1 s
  Plat: 109.2 x10_4/uL
  RBC: 706.4 x10_4/ul
  Ret: 4.9%
  WBC: 119.3 x10_2/uL
  KIDNEY_L: 1.3 g
  KIDNEY_R: 1.3 g
  KIDNEY_TOTAL: 2.6 g
  LIVER: 13.8 g
  A/G: 1.1
  ALP: 1338.2 IU/L
  ALT: 43 IU/L
  AST: 73.8 IU/L
  BUN: 17 mg/dL
  CRE: 0.2 mg/dL
  Ca: 10.3 mg/dL
  Cl: 105.6 meq/L
  DBIL: 0 mg/dL
  GLC: 181 mg/dL
  IP: 8 mg/dL
  K: 4.1 meq/L
  LDH: 178 IU/L
  Na: 142.2 meq/L
  PL: 143.4 mg/dL
  RALB: 3.1 g/dL
  TBIL: 0.006 mg/dL
  TC: 79 mg/dL
  TG: 83.6 mg/dL
  TP: 5.8 g/dL
  gamma-GTP: 2.2 IU/L
[4]
  TERMINAL_BW: 384.1 g
  APTT: 25.6 s
  Bas: 0%
  Eos: 1%
  Fbg: 330.2 mg/dL
  Hb: 15.8 g/dL
  Ht: 45.7%
  Lym: 78%
  MCH: 19.8 pg
  MCHC: 34.5%
  MCV: 57.3 fL
  Mono: 3%
  Neu: 16.8%
  PT: 15.6 s
  Plat: 99.5 x10_4/uL
  RBC: 798 x10_4/ul
  Ret: 3.3%
  WBC: 104.8 x10_2/uL
  KIDNEY_L: 1.5 g
  KIDNEY_R: 1.5 g
  KIDNEY_TOTAL: 3 g
  LIVER: 16.3 g
  A/G: 1.1
  ALP: 1071.4 IU/L
  ALT: 40.8 IU/L
  AST: 67.8 IU/L
  BUN: 16.2 mg/dL
  CRE: 0.2 mg/dL
  Ca: 10.3 mg/dL
  Cl: 106 meq/L
  DBIL: 0 mg/dL
  GLC: 189.8 mg/dL
  IP: 7.4 mg/dL
  K: 4.1 meq/L
  LDH: 137.6 IU/L
  Na: 143.2 meq/L
  PL: 135.8 mg/dL
  RALB: 3.2 g/dL
  TBIL: 0.024 mg/dL
  TC: 71.2 mg/dL
  TG: 97.4 mg/dL
  TP: 6.1 g/dL
  gamma-GTP: 1.8 IU/L
[5]
  TERMINAL_BW: 221.1 g
  APTT: 22.1 s
  Bas: 0%
  Eos: 0.5%
  Fbg: 438.5 mg/dL
  Hb: 15 g/dL
  Ht: 44.8%
  Lym: 77.8%
  MCH: 21.1 pg
  MCHC: 33.5%
  MCV: 63 fL
  Mono: 3.8%
  Neu: 15.8%
  PT: 16.7 s
  Plat: 134.2 x10_4/uL
  RBC: 711.5 x10_4/ul
  Ret: 6.6%
  WBC: 107.4 x10_2/uL
  KIDNEY_L: 0.9 g
  KIDNEY_R: 0.9 g
  KIDNEY_TOTAL: 1.9 g
  LIVER: 9.5 g
  A/G: 1.2
  ALP: 1278.8 IU/L
  ALT: 42.5 IU/L
  AST: 73.2 IU/L
  BUN: 15.2 mg/dL
  CRE: 0.2 mg/dL
  Ca: 10.9 mg/dL
  Cl: 106.8 meq/L
  DBIL: 0 mg/dL
  GLC: 178.8 mg/dL
  IP: 7.3 mg/dL
  K: 4.3 meq/L
  LDH: 198.8 IU/L
  Na: 141.8 meq/L
  PL: 122.8 mg/dL
  RALB: 3.1 g/dL
  TBIL: 0.0075 mg/dL
  TC: 75 mg/dL
  TG: 37.8 mg/dL
  TP: 5.7 g/dL
  gamma-GTP: 1.5 IU/L
[6]
  TERMINAL_BW: 254.4 g
  APTT: 23 s
  Bas: 0%
  Eos: 0.2%
  Fbg: 354 mg/dL
  Hb: 14.6 g/dL
  Ht: 43%
  Lym: 67.4%
  MCH: 20.2 pg
  MCHC: 33.9%
  MCV: 59.7 fL
  Mono: 4.6%
  Neu: 26%
  PT: 16.7 s
  Plat: 117.7 x10_4/uL
  RBC: 720.6 x10_4/ul
  Ret: 6%
  WBC: 116.9 x10_2/uL
  KIDNEY_L: 1.1 g
  KIDNEY_R: 1.1 g
  KIDNEY_TOTAL: 2.1 g
  LIVER: 11.2 g
  A/G: 1.2
  ALP: 1736.2 IU/L
  ALT: 58.6 IU/L
  AST: 79 IU/L
  BUN: 16.6 mg/dL
  CRE: 0.2 mg/dL
  Ca: 10.8 mg/dL
  Cl: 104.2 meq/L
  DBIL: 0 mg/dL
  GLC: 173 mg/dL
  IP: 8.2 mg/dL
  K: 4.4 meq/L
  LDH: 182.6 IU/L
  Na: 142 meq/L
  PL: 134.6 mg/dL
  RALB: 3.3 g/dL
  TBIL: 0.01 mg/dL
  TC: 74 mg/dL
  TG: 65.6 mg/dL
  TP: 5.9 g/dL
  gamma-GTP: 2.2 IU/L
[7]
  TERMINAL_BW: 288.8 g
  APTT: 24.8 s
  Bas: 0%
  Eos: 0.2%
  Fbg: 337 mg/dL
  Hb: 15.5 g/dL
  Ht: 45.7%
  Lym: 77%
  MCH: 20.1 pg
  MCHC: 33.8%
  MCV: 59.5 fL
  Mono: 3.2%
  Neu: 18.2%
  PT: 16.1 s
  Plat: 102.3 x10_4/uL
  RBC: 767.8 x10_4/ul
  Ret: 4.7%
  WBC: 128.3 x10_2/uL
  KIDNEY_L: 1.2 g
  KIDNEY_R: 1.3 g
  KIDNEY_TOTAL: 2.5 g
  LIVER: 11.7 g
  A/G: 1.2
  ALP: 1300.2 IU/L
  ALT: 54 IU/L
  AST: 85 IU/L
  BUN: 13.8 mg/dL
  CRE: 0.2 mg/dL
  Ca: 10.4 mg/dL
  Cl: 104.8 meq/L
  DBIL: 0 mg/dL
  GLC: 175.5 mg/dL
  IP: 8.7 mg/dL
  K: 4.2 meq/L
  LDH: 137.2 IU/L
  Na: 141.8 meq/L
  PL: 128.8 mg/dL
  RALB: 3.2 g/dL
  TBIL: 0.02 mg/dL
  TC: 70.5 mg/dL
  TG: 64.2 mg/dL
  TP: 5.8 g/dL
  gamma-GTP: 2.2 IU/L
[8]
  TERMINAL_BW: 371.8 g
  APTT: 27.4 s
  Bas: 0%
  Eos: 1%
  Fbg: 349 mg/dL
  Hb: 16.1 g/dL
  Ht: 46.7%
  Lym: 76.5%
  MCH: 19.9 pg
  MCHC: 34.5%
  MCV: 57.7 fL
  Mono: 2.5%
  Neu: 19%
  PT: 16.6 s
  Plat: 91.7 x10_4/uL
  RBC: 810 x10_4/ul
  Ret: 3.6%
  WBC: 133.1 x10_2/uL
  KIDNEY_L: 1.4 g
  KIDNEY_R: 1.4 g
  KIDNEY_TOTAL: 2.8 g
  LIVER: 15.5 g
  A/G: 1.1
  ALP: 1103 IU/L
  ALT: 54 IU/L
  AST: 92.5 IU/L
  BUN: 16.5 mg/dL
  CRE: 0.2 mg/dL
  Ca: 10.8 mg/dL
  Cl: 105 meq/L
  DBIL: 0 mg/dL
  GLC: 186.5 mg/dL
  IP: 7.5 mg/dL
  K: 4.1 meq/L
  LDH: 140.5 IU/L
  Na: 143 meq/L
  PL: 133.5 mg/dL
  RALB: 3.3 g/dL
  TBIL: 0.025 mg/dL
  TC: 66 mg/dL
  TG: 90 mg/dL
  TP: 6.5 g/dL
  gamma-GTP: 2.5 IU/L
